Reference: patent US20230233569A1 (Revolution Medicines, Inc., priority 2020, published 2023)

Assays:
NRAS Q61K = NRAS Q61K (Homo sapiens, UniProt P01111+P62937, Q61K); experiment: Disruption of BRAF RBD interaction with Ras (FRET / MOA assay, with Cyclophilin A); type: biochemical; conditions: NRAS Q61K; read-out: NRAS Q61K FRET data IC50
Outline: (§1)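 TR-FRET in 25 mM HEPES pH 7.3, 100 mM NaCl, 5 mM MgCl2, 0.1% BSA: 25 μM Cyclophilin A, 12.5 nM His6-Ras-GMPPNP, 50 nM GST-BRAF RBD with compound (10-point 3-fold series from 30 μM), 3 h at 25° C. Anti-His Eu/anti-GST APC added, 1.5 h more; IC50 from decreased FRET ratio versus DMSO.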

KRAS Q61H = KRAS Q61H (Homo sapiens, UniProt P01116+P62937, Q61H); experiment: as above; type: biochemical; conditions: KRAS Q61H; read-out: KRAS Q61H FRET data IC50
KRAS Q61H, sequence (P01116 1-169 isoform P01116-2 Q61H limits assumed): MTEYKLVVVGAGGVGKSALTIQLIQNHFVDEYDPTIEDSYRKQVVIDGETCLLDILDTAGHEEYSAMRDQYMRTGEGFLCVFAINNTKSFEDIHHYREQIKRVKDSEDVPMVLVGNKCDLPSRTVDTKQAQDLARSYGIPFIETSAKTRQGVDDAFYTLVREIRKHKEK
KRAS Q61H, sequence (P62937 whole entry): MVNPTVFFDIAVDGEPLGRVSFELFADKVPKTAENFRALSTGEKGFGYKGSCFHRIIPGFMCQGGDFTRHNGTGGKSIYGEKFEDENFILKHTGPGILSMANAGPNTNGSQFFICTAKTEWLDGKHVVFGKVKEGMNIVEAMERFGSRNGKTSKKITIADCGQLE
Outline: as §1

NRAS WT = NRAS WT (Homo sapiens, UniProt P01111+P62937); experiment: as above; type: biochemical; conditions: NRAS WT; read-out: NRAS WT FRET data IC50
NRAS WT, sequence (P01111 whole entry): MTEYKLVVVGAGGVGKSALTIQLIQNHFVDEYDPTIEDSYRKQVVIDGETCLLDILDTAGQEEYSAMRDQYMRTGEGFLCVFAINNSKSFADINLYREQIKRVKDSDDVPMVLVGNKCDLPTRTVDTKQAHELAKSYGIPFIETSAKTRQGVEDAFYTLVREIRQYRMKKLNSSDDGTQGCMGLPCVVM
NRAS WT, sequence (P62937 whole entry): as the sequence (P62937 whole entry) above
Outline: as §1

NRAS Q61R = NRAS Q61R (Homo sapiens, UniProt P01111+P62937, Q61R); experiment: as above; type: biochemical; conditions: NRAS Q61R; read-out: NRAS Q61R FRET data IC50
NRAS Q61R, sequence (P01111 whole entry Q61R): as the sequence (P01111 whole entry) above, with Q61R counted along it
NRAS Q61R, sequence (P62937 whole entry): as the sequence (P62937 whole entry) above
Outline: as §1

KRAS G12D = KRAS G12D (Homo sapiens, UniProt P01116+P62937, G12D); experiment: as above; type: biochemical; conditions: read-out: KRAS G12D FRET data, IC50
KRAS G12D, sequence (P01116 1-169 isoform P01116-2 G12D limits assumed): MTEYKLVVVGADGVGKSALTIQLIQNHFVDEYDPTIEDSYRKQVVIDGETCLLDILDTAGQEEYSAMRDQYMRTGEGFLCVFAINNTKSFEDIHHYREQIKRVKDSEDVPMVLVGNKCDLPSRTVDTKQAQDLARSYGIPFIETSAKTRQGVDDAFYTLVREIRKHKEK
KRAS G12D, sequence (P62937 whole entry): as the sequence (P62937 whole entry) above
Outline: (§2)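 TR-FRET readout: a drop in ratio relative to DMSO wells marks disruption of the K-Ras:BRAF RBD complex via compound-induced K-Ras–Cyclophilin A ternary complex. Dosing used ten 3-fold steps from 30 μM final, 3 h at 25 °C, then Eu-anti-His 10 nM plus APC-anti-GST 50 nM for another 1.5 h. Values are IC50s.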

KRAS G13C = KRAS G13C (Homo sapiens, UniProt P01116+P62937, G13C); experiment: as above; type: biochemical; conditions: read-out: KRAS G13C FRET data, IC50
KRAS G13C, sequence (P01116 1-169 isoform P01116-2 G13C): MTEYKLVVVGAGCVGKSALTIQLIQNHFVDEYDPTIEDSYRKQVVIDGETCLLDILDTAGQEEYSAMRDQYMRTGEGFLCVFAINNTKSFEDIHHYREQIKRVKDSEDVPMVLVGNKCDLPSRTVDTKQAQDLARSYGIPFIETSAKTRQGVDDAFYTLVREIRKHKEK
KRAS G13C, sequence (P62937 whole entry): as the sequence (P62937 whole entry) above
Outline: as §2

KRAS G12V = KRAS G12V (Homo sapiens, UniProt P01116+P62937, G12V); experiment: as above; type: biochemical; conditions: KRAS G12V; read-out: KRAS G12V FRET data IC50
KRAS G12V, sequence (P01116 1-169 isoform P01116-2 G12V limits assumed): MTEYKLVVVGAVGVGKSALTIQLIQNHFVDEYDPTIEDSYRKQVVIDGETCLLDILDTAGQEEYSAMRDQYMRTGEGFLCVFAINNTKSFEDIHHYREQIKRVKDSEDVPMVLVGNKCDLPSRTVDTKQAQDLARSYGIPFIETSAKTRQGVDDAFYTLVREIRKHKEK
KRAS G12V, sequence (P62937 whole entry): as the sequence (P62937 whole entry) above
Outline: as §2

KRAS G12C = KRAS G12C (Homo sapiens, UniProt P01116+P62937, G12C); experiment: as above; type: biochemical; conditions: read-out: KRAS G12C FRET data, IC50
KRAS G12C, sequence (P01116 1-169 isoform P01116-2 G12C): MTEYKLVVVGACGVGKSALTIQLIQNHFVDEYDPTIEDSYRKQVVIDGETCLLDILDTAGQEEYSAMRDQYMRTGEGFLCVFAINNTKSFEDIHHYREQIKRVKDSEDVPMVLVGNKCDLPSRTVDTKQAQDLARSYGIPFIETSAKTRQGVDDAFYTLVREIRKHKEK
KRAS G12C, sequence (P62937 whole entry): as the sequence (P62937 whole entry) above
Outline: as §2

KRAS G13D = KRAS G13D (Homo sapiens, UniProt P01116+P62937, G13D); experiment: as above; type: biochemical; conditions: KRAS G13D; read-out: KRAS G13D FRET data IC50
KRAS G13D, sequence (P01116 1-169 isoform P01116-2 G13D limits assumed): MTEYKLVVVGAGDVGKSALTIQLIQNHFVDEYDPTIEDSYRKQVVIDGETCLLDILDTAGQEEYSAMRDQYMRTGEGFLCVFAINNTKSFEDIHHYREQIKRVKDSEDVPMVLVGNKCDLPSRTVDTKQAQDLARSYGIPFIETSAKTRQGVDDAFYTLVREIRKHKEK
KRAS G13D, sequence (P62937 whole entry): as the sequence (P62937 whole entry) above
Outline: as §2

NRAS G12C = NRAS G12C (Homo sapiens, UniProt P01111+P62937, G12C); experiment: as above; type: biochemical; conditions: NRAS G12C; read-out: NRAS G12C FRET data IC50
NRAS G12C, sequence (P01111 whole entry G12C): as the sequence (P01111 whole entry) above, with G12C counted along it
NRAS G12C, sequence (P62937 whole entry): as the sequence (P62937 whole entry) above

KRAS G12S = KRAS G12S (Homo sapiens, UniProt P01116+P62937, G12S); experiment: as above; type: biochemical; conditions: read-out: KRAS G12S FRET data, IC50
KRAS G12S, sequence (P01116 1-169 isoform P01116-2 G12S limits assumed): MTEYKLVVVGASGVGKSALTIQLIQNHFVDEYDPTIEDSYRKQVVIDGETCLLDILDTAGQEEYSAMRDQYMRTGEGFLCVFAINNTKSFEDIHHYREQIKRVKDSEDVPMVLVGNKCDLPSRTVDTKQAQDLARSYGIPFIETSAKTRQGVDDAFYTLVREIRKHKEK
KRAS G12S, sequence (P62937 whole entry): as the sequence (P62937 whole entry) above
Outline: as §2

KRAS WT = KRAS WT (Homo sapiens, UniProt P01116+P62937); experiment: as above; type: biochemical; conditions: KRAS WT; read-out: KRAS WT FRET data IC50
KRAS WT, sequence (P01116 1-169 isoform P01116-2 limits assumed): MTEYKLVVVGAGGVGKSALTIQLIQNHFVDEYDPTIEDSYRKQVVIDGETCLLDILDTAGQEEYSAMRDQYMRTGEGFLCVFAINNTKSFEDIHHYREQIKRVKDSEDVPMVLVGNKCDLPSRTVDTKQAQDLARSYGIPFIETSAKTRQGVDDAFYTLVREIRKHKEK
KRAS WT, sequence (P62937 whole entry): as the sequence (P62937 whole entry) above
Outline: as §2

Capan-1 (K-Ras G12V) = experiment: CellTiter-Glo cell viability assay, 5-day treatment; type: cell-based; conditions: Homo sapiens, CAPAN-1, 120 h, 5-day treatment; read-out: Capan-1 Cell Viability assay data (K-Ras G12V, IC50)
Outline: (§3)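 Five-day compound treatment of plated cells; luminescent read after ~30 min at RT. Percent-of-DMSO data fit to a four-parameter logistic model.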

NCI-H358 (K-Ras G12C) = experiment: as above; type: cell-based; conditions: Homo sapiens, NCI-H358, 120 h, 5-day treatment; read-out: H358 Cell Viability assay data (K-Ras G12C, IC50)
Outline: as §3

NRAS Q61K, sequence (P01111 whole entry Q61K): as the sequence (P01111 whole entry) above, with Q61K counted along it
NRAS Q61K, sequence (P62937 whole entry): as the sequence (P62937 whole entry) above

IC50 (NRAS Q61K) [nM]	IC50 (KRAS Q61H) [nM]	IC50 (NRAS WT) [nM]	IC50 (NRAS Q61R) [nM]	IC50 (KRAS G12D) [nM]	IC50 (KRAS G13C) [nM]	IC50 (KRAS G12V) [nM]	IC50 (KRAS G12C) [nM]	IC50 (KRAS G13D) [nM]	IC50 (NRAS G12C) [nM]	IC50 (KRAS G12S) [nM]	IC50 (KRAS WT) [nM]	IC50 (NCI-H358 (K-Ras G12C)) [nM]	SMILES	IC50 (Capan-1 (K-Ras G12V)) [nM]
10 to 100	100 to 1000	100 to 1000	100 to 1000	1000 to 10000	100 to 1000	100 to 1000	100 to 1000	100 to 1000	100 to 1000	100 to 1000	100 to 1000	10 to 100	CCn1c(-c2cccnc2[C@H](C)OC)c2c3cc(ccc31)-c1csc(n1)C[C@H](NC(=O)[C@H](C(C)C)N(C)C(=O)N1CC3(CC(N(C)CCOC)C3)C1)C(=O)N1CCC[C@H](N1)C(=O)OCC(C)(C)C2 (atropisomer, axis not shown) [Example A532]	10 to 100
10 to 100	< 10	10 to 100	10 to 100	10 to 100	10 to 100	10 to 100	< 10	10 to 100	10 to 100	10 to 100	10 to 100	< 10	CCn1c(-c2cccnc2[C@H](C)OC)c2c3cc(ccc31)-c1cc(O)cc(c1)C[C@H](NC(=O)[C@H](C(C)C)N(C)C(=O)[C@@H]1OCC[C@@H]1c1cccnc1)C(=O)N1CCC[C@H](N1)C(=O)OCC(C)(C)C2 (atropisomer, axis not shown) [Example A546]	10 to 100
10 to 100	10 to 100	100 to 1000	100 to 1000	1000 to 10000	100 to 1000	100 to 1000	10 to 100	100 to 1000	10 to 100	100 to 1000	100 to 1000	10 to 100	CCn1c(-c2cccnc2[C@H](C)OC)c2c3cc(ccc31)-c1csc(n1)C[C@H](NC(=O)[C@H](C(C)C)N(C)C(=O)N1CC(N(C)S(C)(=O)=O)C1)C(=O)N1CCC[C@H](N1)C(=O)OCC(C)(C)C2 (atropisomer, axis not shown) [Example A550]	10 to 100
10 to 100	10 to 100	10 to 100	10 to 100	100 to 1000	10 to 100	10 to 100	10 to 100	100 to 1000	10 to 100	10 to 100	10 to 100	< 10	CCn1c(-c2cc(N3CCN(C)CC3)cnc2[C@H](C)OC)c2c3cc(ccc31)-c1csc(n1)C[C@H](NC(=O)[C@H](C(C)C)N(C)C(=O)N1CCOCC1)C(=O)N1CCC[C@H](N1)C(=O)OCC(C)(C)C2 (atropisomer, axis not shown) [Example A555]	< 10

SMILES	IC50 (NRAS Q61K) [nM]	IC50 (KRAS Q61H) [nM]	IC50 (NRAS WT) [nM]	IC50 (NRAS Q61R) [nM]	IC50 (KRAS G12D) [nM]	IC50 (KRAS G13C) [nM]	IC50 (KRAS G12V) [nM]	IC50 (KRAS G12C) [nM]	IC50 (KRAS G13D) [nM]	IC50 (NRAS G12C) [nM]	IC50 (KRAS G12S) [nM]	IC50 (KRAS WT) [nM]	IC50 (NCI-H358 (K-Ras G12C)) [nM]	IC50 (Capan-1 (K-Ras G12V)) [nM]
CCn1c(-c2cccnc2[C@H](C)OC)c2c3cc(ccc31)-c1csc(n1)C[C@H](NC(=O)[C@H](C(C)C)N(C)C(=O)N1CC(S(=O)(=O)NC)C1)C(=O)N1CCC[C@H](N1)C(=O)OCC(C)(C)C2 (atropisomer, axis not shown) [Example A549]	10 to 100	10 to 100	100 to 1000	100 to 1000	100 to 1000	100 to 1000	100 to 1000	10 to 100	100 to 1000	10 to 100	100 to 1000	100 to 1000	10 to 100	10 to 100
